Experimental data reported in US20240041042A1, “1-(PYRIDYL)-5-AZINYLPYRAZOLE DERIVATIVES, AND THEIR USE FOR CONTROL OF UNDESIRED PLANT GROWTH” (Bayer Aktiengesellschaft, priority 2020, published 2024).
Read-outs that look alike come from different tables or passages of the source.

Columns and labels:
Assay type in all cases: in vivo
[1] = tested on: Abutilon theophrasti (ABUTH); assay: Pre-emergence herbicidal action against ABUTH; details: 100% = plants have died
Method in brief: (§1)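 Application rates ran to 320 g/ha or lower, with several dosages tested on the same weeds. The compound, as wettable powder or emulsion concentrate, is sprayed pre-emergence onto soil over sown seeds; greenhouse growth follows, and effect is rated visually after roughly 3 weeks.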

[2] = tested on: Alopecurus myosuroides (ALOMY); assay: Pre-emergence herbicidal action against ALOMY; details: scored visually after about 3 weeks, 100% = plants have died
Method in brief: as §1

[3] = tested on: Amaranthus retroflexus (AMARE); assay: Pre-emergence herbicidal action against AMARE; details: visual scoring after about 3 weeks vs untreated controls
Method in brief: as §1

Avena fatua (AVEFA) [4] = assay: Pre-emergence herbicidal action against AVEFA; details: visual scoring after about 3 weeks vs untreated controls
Method in brief: as §1

[5] = tested on: Echinochloa crus-galli (ECHCG); assay: Pre-emergence herbicidal action against ECHCG
Method in brief: as §1

Lolium rigidum (LOLRI) [6] = assay: Pre-emergence herbicidal action against LOLRI
Method in brief: as §1

[7] = tested on: Matricaria inodora (MATIN); assay: Pre-emergence herbicidal action against MATIN
Method in brief: as §1

[8] = tested on: Pharbitis purpurea (PHBPU); assay: Pre-emergence herbicidal action against PHBPU
Method in brief: as §1

[9] = tested on: Polygonum convolvulus (POLCO); assay: Pre-emergence herbicidal action against POLCO; details: dosage 320 g/ha
Method in brief: as §1

Setaria viridis (SETVI) [10] = assay: Pre-emergence herbicidal action against SETVI
Method in brief: as §1

[11] = tested on: Verconica persica (VERPE); assay: Pre-emergence herbicidal action against VERPE; details: dosage 320 g/ha
Method in brief: as §1

Viola tricolor (VIOTR) [12] = assay: Pre-emergence herbicidal action against VIOTR
Method in brief: as §1

[13] = tested on: Abutilon theophrasti (ABUTH); assay: Post-emergence herbicidal action against ABUTH; details: visual rating about 3 weeks after treatment vs untreated controls (100% = plants have died, 0% = like control plants)
Method in brief: (§2)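 Values are percent visual activity (0% like control, 100% plants dead) after about 3 weeks in the greenhouse. Treatment: post-emergence spray at one-leaf stage, 600 l/ha spray volume, 0.5% additive, doses 320 g/ha or lower.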

[14] = tested on: Alopecurus myosuroides (ALOMY); assay: Post-emergence herbicidal action against ALOMY; details: visual rating about 3 weeks after treatment vs untreated controls (100% = plants have died, 0% = like control plants)
Method in brief: as §2

[15] = tested on: Amaranthus retroflexus (AMARE); assay: Post-emergence herbicidal action against AMARE
Method in brief: as §2

Avena fatua (AVEFA) [16] = assay: Post-emergence herbicidal action against AVEFA; details: visual rating about 3 weeks after treatment
Method in brief: as §2

[17] = tested on: Echinochloa crus-galli (ECHCG); assay: Post-emergence herbicidal action against ECHCG
Method in brief: as §2

Lolium rigidum (LOLRI) [18] = assay: Post-emergence herbicidal action against LOLRI
Method in brief: as §2

[19] = tested on: Polygonum convolvulus (POLCO); assay: Post-emergence herbicidal action against POLCO
Method in brief: as §2

Setaria viridis (SETVI) [20] = assay: Post-emergence herbicidal action against SETVI
Method in brief: as §2

[21] = tested on: Verconica persica (VERPE); assay: Post-emergence herbicidal action against VERPE
Method in brief: as §2

Viola tricolor (VIOTR) [22] = assay: Post-emergence herbicidal action against VIOTR
Method in brief: as §2

Oryza sativa (ORYSA) = details: crop plant compatibility
Method in brief: (§3)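 One-leaf-stage crops (2–3 wk post-sowing, sandy loam, greenhouse) sprayed on green parts; 0.5% additive, 600 l/ha water. Rated by eye ~3 wk later, % vs untreated; suffixes a/b/c mark different dosages.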

[23] = tested on: Triticum aestivum (TRZAS); details: crop plant compatibility, effect vs untreated controls
Method in brief: as §3

[24] = tested on: Matricaria inodora (MATIN); assay: Post-emergence herbicidal action against MATIN; details: dosage 80 g/ha
Method in brief: as §2

[25] = tested on: Pharbitis purpurea (PHBPU); assay: Post-emergence herbicidal action against PHBPU; details: dosage 80 g/ha
Method in brief: as §2

Zea mays (ZEAMX) [26] = tested on: Zea mays (ZEAMX)
Method in brief: as §3

Zea mays (ZEAMX) [27] = details: pre-emergence, 80 g/ha, crop plant compatibility, in comparison to untreated controls
Method in brief: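 Crop injury rated visually in percent against untreated plants roughly 3 weeks after treatment (0% no effect, 100% plants dead). Compounds, as WP or EC with 0.5% additive in 600 l/ha water, were applied to the covering soil right after sowing; greenhouse growth. Suffixes a, b, c denote different dosages.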

[28] = 80 g/ha, scored visually after about 3 weeks vs untreated controls, 0% = like control plants
[29] = Dosage column 320 g/ha (title prints 3200 g/ha), scored visually after about 3 weeks
[30] = 320 g/ha, visual rating about 3 weeks after treatment
[31] = 80 g/ha, effect in comparison to untreated controls
[32] = 80 g/ha, visual rating about 3 weeks after treatment vs untreated controls (100% = plants have died, 0% = like control plants)

Row | SMILES | Pre-emergence action against ABUTH [1, 28] | Pre-emergence action against ABUTH [1, 29] | Pre-emergence action against ALOMY ([2]; 80 g/ha) | Pre-emergence action against ALOMY ([2]; 320 g/ha) | Pre-emergence action against AMARE in % ([3]; 80 g/ha) | Pre-emergence action against AMARE in % ([3]; 320 g/ha) | Pre-emergence action against AVEFA in % (Avena fatua (AVEFA) [4]; 320 g/ha) | Pre-emergence action against ECHCG in % ([5]; dosage 80 g/ha) | Pre-emergence action against ECHCG in % ([5]; dosage 320 g/ha) | Pre-emergence action against LOLRI in % (Lolium rigidum (LOLRI) [6]; dosage 320 g/ha) | Pre-emergence action against MATIN in % ([7]; dosage 320 g/ha) | Pre-emergence action against PHBPU in % ([8]; dosage 320 g/ha) | Pre-emergence action against POLCO in % [9] | Pre-emergence action against SETVI in % (Setaria viridis (SETVI) [10]; dosage 80 g/ha) | Pre-emergence action against SETVI in % (Setaria viridis (SETVI) [10]; dosage 320 g/ha) | Pre-emergence action against VIOTR in % (Viola tricolor (VIOTR) [12]; 320 g/ha, Viola tricolor) | Pre-emergence action against VIOTR in % (Viola tricolor (VIOTR) [12]; dosage 80 g/ha) | Post-emergence action against ABUTH in % ([13]; 80 g/ha) | Post-emergence action against ECHCG in % ([17]; dosage 80 g/ha) | Post-emergence action against ORYSA in % (Oryza sativa (ORYSA); [31]) | other results
1 | CCOC(=O)COc1nn(-c2ccnc(Cl)c2)c(-c2ccc(F)nc2)c1Br [III-24] | 90% | 100% | 100% | 100% | 100% | 100% | 100% | 90% | 100% | 100% | 100% | 100% | 100% | 100% | 100% | 100% | 100% | 90% | 80% | 0% | Pre-emergence action against AVEFA in % (Avena fatua (AVEFA) [4]; 80 g/ha): 100%; Pre-emergence action against LOLRI in % (Lolium rigidum (LOLRI) [6]; dosage 80 g/ha): 100%; Pre-emergence action against VERPE in % [11]: 100%; Post-emergence action against ABUTH in % ([13]; 320 g/ha): 90%; Post-emergence action against ALOMY in % ([14]; 80 g/ha): 100%; Post-emergence action against ALOMY in % ([14]; 320 g/ha): 100%; Post-emergence action against AMARE in % [15, 30]: 100%; Post-emergence action against AVEFA in % (Avena fatua (AVEFA) [16]; 320 g/ha): 80%; Post-emergence action against ECHCG in % ([17]; dosage 320 g/ha): 100%; Post-emergence action against LOLRI in % (Lolium rigidum (LOLRI) [18]; dosage 80 g/ha): 100%; Post-emergence action against LOLRI in % (Lolium rigidum (LOLRI) [18]; dosage 320 g/ha): 100%; Post-emergence action against POLCO in % ([19]; dosage 320 g/ha): 90%; Post-emergence action against SETVI in % (Setaria viridis (SETVI) [20]; dosage 80 g/ha): 100%; Post-emergence action against SETVI in % (Setaria viridis (SETVI) [20]; dosage 320 g/ha): 100%; Post-emergence action against VERPE in % ([21]; 320 g/ha, VERPE): 80%; Post-emergence action against VIOTR in % (Viola tricolor (VIOTR) [22]; 80 g/ha): 80%; Post-emergence action against VIOTR in % (Viola tricolor (VIOTR) [22]; 320 g/ha): 90%; Post-emergence action against TRZAS in % ([23]; 80 g/ha): 0%; Post-emergence action against TRZAS in % ([23]; 320 g/ha): 0%
2 | COC(=O)[C@H](C)COC(=O)COc1nn(-c2ccccn2)c(-c2cncc(F)c2)c1Cl [Example I-74] | – | 90% | 80% | 100% | 90% | 100% | 80% | 80% | 100% | 100% | 90% | 90% | 100% | 90% | 100% | 100% | 90% | 80% | 90% | 10% | Pre-emergence action against MATIN in % ([7]; dosage 80 g/ha): 90%; Pre-emergence action against PHBPU in % ([8]; dosage 80 g/ha): 90%; Pre-emergence action against VERPE in % [11]: 100%; Post-emergence action against ALOMY in % ([14]; 80 g/ha): 100%; Post-emergence action against AMARE in % [15, 32]: 80%; Post-emergence action against AVEFA in % (Avena fatua (AVEFA) [16]; 80 g/ha): 90%; Post-emergence action against LOLRI in % (Lolium rigidum (LOLRI) [18]; dosage 80 g/ha): 90%; Post-emergence action against MATIN in % [24]: 90%; Post-emergence action against PHBPU in % [25]: 90%; Post-emergence action against POLCO in % ([19]; dosage 80 g/ha): 90%; Post-emergence action against SETVI in % (Setaria viridis (SETVI) [20]; dosage 80 g/ha): 80%; Post-emergence action against VERPE in % ([21]; dosage 80 g/ha): 80%; Post-emergence action against ORYSA in % (Oryza sativa (ORYSA); 20 g/ha, effect vs untreated controls): 0%; Post-emergence action against TRZAS in % ([23]; 20 g/ha): 0%; Post-emergence action against ZEAMX in % (crop plant compatibility) (Zea mays (ZEAMX) [26]; 20 g/ha, ZEAMX, effect in comparison to untreated controls): 10%
3 | O=C(O)COc1nn(-c2ncccc2C(F)(F)F)c(-c2ccc(F)nc2)c1Cl [Example I-327] | 100% | 100% | – | 100% | – | 100% | 80% | – | – | 100% | 80% | 80% | 90% | – | 100% | 100% | 100% | 80% | 80% | 0% | Pre-emergence action against MATIN in % ([7]; dosage 80 g/ha): 80%; Pre-emergence action against ZEAMX in % (Zea mays (ZEAMX) [27]): 20%; Post-emergence action against ABUTH in % ([13]; 320 g/ha): 90%; Post-emergence action against ALOMY in % ([14]; 320 g/ha): 100%; Post-emergence action against AMARE in % [15, 32]: 90%; Post-emergence action against AMARE in % [15, 30]: 90%; Post-emergence action against ECHCG in % ([17]; dosage 320 g/ha): 90%; Post-emergence action against LOLRI in % (Lolium rigidum (LOLRI) [18]; dosage 320 g/ha): 90%; Post-emergence action against POLCO in % ([19]; dosage 320 g/ha): 80%; Post-emergence action against SETVI in % (Setaria viridis (SETVI) [20]; dosage 320 g/ha): 90%; Post-emergence action against VERPE in % ([21]; 320 g/ha, VERPE): 90%; Post-emergence action against VERPE in % ([21]; dosage 80 g/ha): 80%; Post-emergence action against VIOTR in % (Viola tricolor (VIOTR) [22]; 80 g/ha): 90%; Post-emergence action against VIOTR in % (Viola tricolor (VIOTR) [22]; 320 g/ha): 90%; Post-emergence action against ZEAMX in % (Zea mays (ZEAMX) [26]; crop plant compatibility, 80 g/ha, effect vs untreated controls): 0%
